The source of these data is article PMC9646789, “Discovery of potential natural dihydroorotate dehydrogenase inhibitors and their synergism with brequinar via integrated molecular docking, dynamic simulations and in vitro approach” (Scientific Reports, 2022).

The assay addresses T1, human dihydroorotate dehydrogenase (hDHODH) (Homo sapiens, UniProt Q02127).
T1 construct: gene DHODH
The experiment in a line: biochemical.

T1 sequence (Q02127 whole entry): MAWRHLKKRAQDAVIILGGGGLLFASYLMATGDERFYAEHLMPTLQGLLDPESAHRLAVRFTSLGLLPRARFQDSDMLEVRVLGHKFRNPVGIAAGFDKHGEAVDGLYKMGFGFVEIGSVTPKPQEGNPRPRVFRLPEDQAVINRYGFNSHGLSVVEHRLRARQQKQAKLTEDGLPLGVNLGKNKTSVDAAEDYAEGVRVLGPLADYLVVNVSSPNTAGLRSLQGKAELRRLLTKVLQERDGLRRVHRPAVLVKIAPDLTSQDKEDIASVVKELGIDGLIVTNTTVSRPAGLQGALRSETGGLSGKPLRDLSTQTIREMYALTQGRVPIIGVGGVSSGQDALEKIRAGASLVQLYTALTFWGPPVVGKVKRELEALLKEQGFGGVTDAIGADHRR

For orientation: IC50 means the midpoint of a concentration-inhibition curve. Turning to `COc1cc(C2Oc3cc([C@H]4Oc5cc(O)cc(O)c5C(=O)[C@@H]4O)ccc3OC2CO)ccc1O` (some centres unmarked) [Silibinin], it took 0.121 µM to reach half-maximal inhibition (IC50).
As for `COc1cc([C@H]2Oc3c(O)cc([C@H]4Oc5cc(O)cc(O)c5C(=O)[C@@H]4O)cc3[C@@H]2CO)ccc1O` [Silychristin B], it took 0.166 µM to reach half-maximal inhibition (IC50).
